Measured values reported in patent EP0511003B1, “Superactive GRF analogs” (ELI LILLY AND COMPANY, priority 1991, dated 1992).
Marks after values point to notes of the source that are not given here. One block for each substance: values may come before it.

Legend:
[1] = target: T1, rat primary pituitary cells (Rattus norvegicus, UniProt Q02644); experiment: Growth hormone release in vitro from rat primary pituitary cells; assay type: cell-based; conditions: growth hormone released into media after exposure to 7 doses of secretagogue for 3h
T1 sequence (Q02644 23-464): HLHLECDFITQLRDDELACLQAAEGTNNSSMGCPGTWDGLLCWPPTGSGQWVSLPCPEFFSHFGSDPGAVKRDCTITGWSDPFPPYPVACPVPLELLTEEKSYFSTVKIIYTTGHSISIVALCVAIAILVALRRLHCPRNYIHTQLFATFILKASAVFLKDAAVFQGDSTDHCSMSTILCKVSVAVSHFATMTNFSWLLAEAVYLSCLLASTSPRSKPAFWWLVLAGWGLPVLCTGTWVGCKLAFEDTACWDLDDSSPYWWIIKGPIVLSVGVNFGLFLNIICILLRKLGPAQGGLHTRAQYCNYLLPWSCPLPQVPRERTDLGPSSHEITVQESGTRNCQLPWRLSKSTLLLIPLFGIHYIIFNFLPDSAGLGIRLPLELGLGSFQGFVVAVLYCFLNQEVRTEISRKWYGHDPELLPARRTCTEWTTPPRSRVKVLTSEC
Description: The polypeptide compounds of the invention may be assayed in numerous systems. One in vivo assay is carried out in sodium pentobarbital-anesthetized rats. Wehrenberg et al., Biochem. Biophys. Res. Commun. 109:382 (1982). Growth hormone release is measured in vitro with rat anterior pituitary cells. Heiman et al., Endocrinol. 116:410 (1985).

[2] = system: barrows; experiment: In vivo effects in barrows injected subcutaneously or intravenously 3 times daily (urinary urea nitrogen excretion and serum parameters); conditions: for GH: serum Growth Hormone level; for GH / TRIG. / BUN / FFA / GLUCOSE / INSULIN: 12th day of treatment; for GH / TRIG. / BUN / FFA / GLUCOSE / INSULIN / UREA: means; for TRIG.: serum triglycerides; for BUN / FFA / GLUCOSE / INSULIN: serum; for UREA: urinary urea nitrogen excretion, injected 3 times daily
Description: A carrier solution was prepared by dissolving 1.38 g of Na2HP04 and 1.0g PSA with pyrogen free H2O to a final volume of 1 litre, pH approximately 5.1. 27.4 mg The p-methyl hippuroyl pGRF (2-76)OH prepared in substantial accordance with the teaching of Example 4.B. above was added to 64 ml of the carrier solution to achieve a final concentration of […].
Twenty crossbred barrows, averaging approximately 72 kg, with an indwelling catheter which had been surgically inserted into the femoral vein, were used to determine the effects of p-methyl hippuroyl pGRF (2-76)OH. A formulation of the p-methyl hippuroyl pGRF (2-76)OH was prepared in substantial accordance with the teaching of Example 11 above and injected 3 times daily at a rate of 10.0 µg/kg/inj., either intravenously (I.V.) or subcutaneously (S.Q.). The barrows were fed 2000 g of an 18.5% crude protein corn-soy diet per day, equally divided between 2 feedings at 8:00 a.m. and 4:00 p.m. The barrows were injected at 8:00 a.m., 4:00 p.m., and 12:00 p.m. Urinary urea nitrogen excretion data were collected during 1 5day control period, 4 3-day treatment periods, and 2 3-day periods after treatments were stopped. Thirty blood serum samples were collected during a 24-hour period on the 12th day of treatment. The serum samples were assayed for GH, BUN, glucose, insulin, FFA, and triglycerides.

[3] = Table 1, bGRF analogs, EC50 is the calculated median effective dose
[4] = injected 3 times daily at a rate of 30.0 µg/kg/d, versus control barrows

Substance: Hippuroyl-1 bGRF(2-77)0H
EC50 [1, 3]: 0.86 nM

Substance: Hippuroyl-1 pGRF(2-76)OH
EC50 ([1]; Table 2, pGRF(2-76)OH analogs): 0.28 nM

Substance: des Tyr-1 pGRF(2-76)0H [reference compound]
EC50 ([1]; Table 2, pGRF(2-76)OH analogs): 95 nM

Substance: n-Phenylmalonamindoyl bGRF(2-77)0H
EC50 [1, 3]: 0.19 nM

Substance: p-Chloro Hippuroyl bGRF(2-77)OH
EC50 [1, 3]: 0.19 nM

Substance: p-Fluoro Hippuroyl bGRF(2-77)0H
EC50 [1, 3]: 0.14 nM

Substance: p-Hydroxy Hippuroyl bGRF(2-77)0H
EC50 [1, 3]: 0.33 nM

Substance: p-Methyl Hippuroyl pGRF(2-76)OH
increase in serum GH levels [2, 4]: 4 fold | reduction in serum BUN levels [2, 4]: 54% | reduction in urinary urea nitrogen excretion [2, 4]: 41% | GH ([2]; IV 30 µg/kg/d): 9.9^b ng/ml | GH ([2]; SQ 30 µg/kg/d): 8.9^b ng/ml | TRIG. ([2]; IV 30 µg/kg/d): 35.3^b mg/dla | TRIG. ([2]; SQ 30 µg/kg/d): 32.5^ab mg/dla | BUN ([2]; IV 30 µg/kg/d): 7.0^b mg/dl | FFA ([2]; IV 30 µg/kg/d): 97.3^b µM/la | GLUCOSE ([2]; IV 30 µg/kg/d): 132.7^b mg/dl | INSULIN ([2]; IV 30 µg/kg/d): 76.8^b µu/ml | BUN ([2]; SQ 30 µg/kg/d): 7.5^b mg/dl | FFA ([2]; SQ 30 µg/kg/d): 97.5^b µM/la | GLUCOSE ([2]; SQ 30 µg/kg/d): 147.3^b mg/dl | INSULIN ([2]; SQ 30 µg/kg/d): 112.9^C µu/ml | depression in urinary urea nitrogen excretion prolonged after treatments were stopped ([2]; subcutaneously injected barrows): 2 to 3 days | UREA ([2]; IV 30 µg/kg/d): 16.3^b g/day | UREA ([2]; SQ 30 µg/kg/d): 16.4^b g/day | EC50 ([1]; Table 2, pGRF(2-76)OH analogs): 0.06 nM | EC50 ([1]; Table 3, p-Methyl Hippuroyl-1 pGRF analogs of different length): 0.06 nM

Further lines, results first:

EC50 [1, 3]: 0.59 nM
Substance: bGRF (1-77)0H [reference compound]

EC50 [1, 3]: 0.05 nM
Substance: p-Methyl Hippuroyl bGRF(2-77)OH

EC50 ([1]; Table 2, pGRF(2-76)OH analogs): 0.06 nM
Substance: p-Methyl Phenylmalonamindoyl pGRF(2-76)OH

EC50 [1, 3]: 0.51 nM
Substance: p-Nitro Hippuroyl bGRF (2-77)0H
